This note sets out measurements from PubChem BioAssay (NCI).

The structures appear in SMILES notation.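 Interpolation was linear, between the two tested concentrations surrounding the appropriate level; five concentrations were tested over 48 hours in 96-well plates. GI50 is the concentration that inhibits growth by half. TGI denotes the concentration required for complete inhibition of growth.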

Test systems include SK-MEL-2 melanoma; HCT-116 colon; DU-145 prostate; CCRF-CEM leukemia; LOX IMVI melanoma; TK-10 renal; M14 melanoma; MDA-MB-435; 786-0 renal; SN12C renal.
Assay in all cases: NCI-60 cell line screen, 48 h

As to `CN1CCN(C(=O)c2ccc(NC(=O)Nc3ccc(-c4nc(N5CCOCC5)c5cccn5n4)cc3)cc2)CC1`, the GI50 in the test with SK-MEL-2 melanoma was 0.0596 µM; in the test on HCT-116 colon it was 0.0507 µM; in the test on DU-145 prostate, 0.0348 µM; in the test with CCRF-CEM leukemia, 0.0473 µM; in the test with LOX IMVI melanoma, 0.0206 µM; with TK-10 renal, 0.18 µM. Further, the GI50 with M14 melanoma was 0.0966 µM; in the test on MDA-MB-435, 0.032 µM; in the test with 786-0 renal it was 0.0632 µM; in the test with SN12C renal, 0.0331 µM. Further, the TGI in the test on SK-MEL-2 melanoma was found to be 1.39 µM; with HCT-116 colon, 15.2 µM; in the test with DU-145 prostate, 12 µM; in the test on CCRF-CEM leukemia, 5.67 µM; in the test on LOX IMVI melanoma, 1.74 µM; in the test on TK-10 renal, 0.874 µM. Further, the TGI with M14 melanoma is 10.3 µM; with MDA-MB-435, 0.41 µM; with 786-0 renal, 1.11 µM; in the test on SN12C renal it was 11.8 µM.
`CN(C)CCN1C(=O)c2cccc3c(/C=C/CN4C(=O)c5cccc6cccc(c56)C4=O)ccc(c23)C1=O`: the GI50 was more than 100 µM with SK-MEL-2 melanoma; 56.9 µM in the test with HCT-116 colon; more than 100 µM with DU-145 prostate; 0.339 µM in the test with CCRF-CEM leukemia; 14.5 µM with LOX IMVI melanoma; 34.7 µM in the test with TK-10 renal. Also, the GI50 is more than 100 µM with M14 melanoma, more than 100 µM with MDA-MB-435, 4.5 µM in the test on 786-0 renal and 21.9 µM in the test with SN12C renal. In addition, the TGI in the test on SK-MEL-2 melanoma was more than 100 µM; with HCT-116 colon it was more than 100 µM; with DU-145 prostate, more than 100 µM; in the test on CCRF-CEM leukemia, 69.9 µM; in the test with LOX IMVI melanoma it was 27.7 µM; with TK-10 renal it was 82.8 µM. Further, the TGI in the test on M14 melanoma is more than 100 µM; in the test with MDA-MB-435, more than 100 µM; in the test with 786-0 renal, 19.5 µM; in the test on SN12C renal, 70.5 µM.
`Nc1nc(Cl)nc2c1ncn2C1OC(CO)C(O)C1F` (configuration not stated): the GI50 in the test on SK-MEL-2 melanoma was more than 100 µM; in the test with HCT-116 colon, 0.0322 µM; in the test with DU-145 prostate, 0.278 µM; with LOX IMVI melanoma, 2.18 µM; in the test on TK-10 renal it was 0.55 µM; in the test on M14 melanoma, 0.024 µM. In addition, the GI50 in the test with MDA-MB-435 is 0.0472 µM; with 786-0 renal, 0.0876 µM; in the test with SN12C renal, less than 0.0439 µM. Also, the TGI is more than 100 µM in the test with SK-MEL-2 melanoma; more than 100 µM in the test on HCT-116 colon; 0.424 µM in the test with CCRF-CEM leukemia; more than 100 µM in the test on LOX IMVI melanoma; more than 83 µM in the test with TK-10 renal; 0.0889 µM in the test on M14 melanoma. The TGI in the test on MDA-MB-435 was more than 100 µM; in the test on 786-0 renal it was 13.6 µM.
For `O=c1cc(-c2ccccc2)[nH]c2c1CCCC2`, the GI50 in the test with SK-MEL-2 melanoma was 4.19 µM; in the test on HCT-116 colon it was 3.34 µM; with DU-145 prostate, 2.47 µM; with CCRF-CEM leukemia, 3.4 µM; in the test on LOX IMVI melanoma, 5.88 µM; with TK-10 renal it was 70.6 µM. In addition, the GI50 in the test on M14 melanoma was 1.5 µM; with MDA-MB-435 it was 0.29 µM; in the test on 786-0 renal, 14.7 µM; in the test with SN12C renal, 13.4 µM. In addition, the TGI with SK-MEL-2 melanoma is more than 100 µM; with HCT-116 colon, more than 100 µM; in the test on DU-145 prostate, 8.35 µM; with CCRF-CEM leukemia, more than 100 µM; in the test with LOX IMVI melanoma, more than 100 µM; with TK-10 renal, more than 100 µM. Further, the TGI was 5.68 µM with M14 melanoma, 0.992 µM with MDA-MB-435, more than 100 µM with 786-0 renal and more than 100 µM in the test on SN12C renal.
For `COc1cc(OC)c2c(=O)cc(-c3ccccc3OCc3ccccc3)oc2c1OC`, the GI50 with SK-MEL-2 melanoma was more than 100 µM; with HCT-116 colon it was 9.22 µM; in the test with DU-145 prostate, 18.5 µM; in the test on CCRF-CEM leukemia it was 3.18 µM; in the test with LOX IMVI melanoma, 10.2 µM; in the test on TK-10 renal, 6.56 µM. The GI50 with M14 melanoma was 7.22 µM; in the test with MDA-MB-435 it was 2.68 µM; in the test on 786-0 renal, 5.49 µM; in the test with SN12C renal, 20.4 µM. In addition, the TGI in the test with SK-MEL-2 melanoma was more than 100 µM; with HCT-116 colon, 50.5 µM; with DU-145 prostate, more than 100 µM; with CCRF-CEM leukemia, 67.7 µM; in the test on LOX IMVI melanoma, more than 100 µM; in the test on TK-10 renal, 34.9 µM. In addition, the TGI in the test on M14 melanoma was 23.1 µM; in the test with MDA-MB-435, 7.01 µM; in the test on 786-0 renal, 56.4 µM; with SN12C renal it was more than 100 µM.
For the molecule `O=C1NC(=O)C(c2cccc(Cl)c2)=C1Nc1ccc(Cl)c(C(=O)O)c1`, the GI50 with SK-MEL-2 melanoma, in the test on HCT-116 colon, in the test with DU-145 prostate, with CCRF-CEM leukemia, with LOX IMVI melanoma and with TK-10 renal was more than 25 µM throughout. Besides, the GI50 in the test on M14 melanoma, in the test on MDA-MB-435, in the test on 786-0 renal and with SN12C renal was more than 25 µM throughout. Also, the TGI with SK-MEL-2 melanoma, in the test with HCT-116 colon, in the test with DU-145 prostate, in the test with CCRF-CEM leukemia, in the test with LOX IMVI melanoma and with TK-10 renal was more than 25 µM throughout. In addition, the TGI in the test with M14 melanoma, in the test on MDA-MB-435, in the test on 786-0 renal and in the test with SN12C renal was more than 25 µM in each case.
`OCCCCC#Cc1ccccc1C#Cc1cccnc1`: the GI50 was 87.9 µM in the test with SK-MEL-2 melanoma; 45.9 µM in the test on HCT-116 colon; 47.3 µM in the test on DU-145 prostate; 33.9 µM in the test with CCRF-CEM leukemia; 29.6 µM in the test with LOX IMVI melanoma; 26.9 µM in the test with TK-10 renal. For the same molecule, the GI50 was 23.4 µM in the test with M14 melanoma, 32.2 µM in the test with MDA-MB-435, 20.2 µM in the test with 786-0 renal and 26.9 µM with SN12C renal. Moreover, the TGI is more than 100 µM with SK-MEL-2 melanoma; more than 100 µM in the test on HCT-116 colon; more than 100 µM in the test on DU-145 prostate; more than 100 µM with CCRF-CEM leukemia; more than 100 µM with LOX IMVI melanoma; 80.6 µM in the test on TK-10 renal. The TGI is 75.4 µM with M14 melanoma, more than 100 µM with MDA-MB-435, 58.3 µM with 786-0 renal and 82.6 µM with SN12C renal.
